Where two headings read alike, the source gives them in different places.
How the values were obtained:
Type in all cases: biochemical
Pim1 kinase = Pim1 kinase (Homo sapiens, UniProt P11309); assay: Pim1 ATP depletion assay; settings: Pim1 ATP depletion assay;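 also: Luciferase-luciferin luminescence readout of residual ATP after PIM1 transfers phosphate to a peptide substrate, 40 µM ATP added, reaction run to roughly half ATP consumption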
Pim2 kinase = Pim2 kinase (Homo sapiens, UniProt Q9P1W9); assay: Pim2 ATP depletion assay;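 also: Luciferase-based luminescent readout of ATP remaining after PIM2 phosphorylates a BAD peptide, final 5 nM enzyme, 4 µM ATP, 10 µM peptide, 2.5% DMSO, run to roughly half ATP consumption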
Chain of Pim2 kinase (Q9P1W9 whole entry): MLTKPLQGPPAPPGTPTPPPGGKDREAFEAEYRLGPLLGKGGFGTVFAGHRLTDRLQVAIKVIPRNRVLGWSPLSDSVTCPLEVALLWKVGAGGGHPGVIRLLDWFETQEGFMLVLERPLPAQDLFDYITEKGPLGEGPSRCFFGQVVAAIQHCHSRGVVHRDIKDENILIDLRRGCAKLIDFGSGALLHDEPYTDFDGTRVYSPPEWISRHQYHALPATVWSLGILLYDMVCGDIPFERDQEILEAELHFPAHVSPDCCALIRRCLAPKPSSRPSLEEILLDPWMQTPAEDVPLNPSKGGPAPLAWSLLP

Pim3 kinase = Pim3 kinase (Homo sapiens, UniProt Q86V86); assay: Pim3 ATP depletion assay

Chain of Pim1 kinase (P11309 whole entry): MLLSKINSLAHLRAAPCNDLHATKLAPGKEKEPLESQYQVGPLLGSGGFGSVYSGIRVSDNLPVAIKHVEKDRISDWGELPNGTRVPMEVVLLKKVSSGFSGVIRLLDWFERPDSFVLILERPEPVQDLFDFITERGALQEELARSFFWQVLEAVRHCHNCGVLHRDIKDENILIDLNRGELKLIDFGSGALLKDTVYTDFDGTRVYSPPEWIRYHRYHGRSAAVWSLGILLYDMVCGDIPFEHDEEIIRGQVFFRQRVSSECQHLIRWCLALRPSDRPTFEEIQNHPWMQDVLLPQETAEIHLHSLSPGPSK

| Compound | IC50 (Pim1 kinase; read-out: PIM1 IC50) [µM] | IC50 (Pim2 kinase; read-out: PIM2 IC50) [µM] | IC50 (Pim3 kinase; read-out: PIM3 IC50) [µM] | IC50 (Pim1 kinase; read-out: IC50 (μM) PIM1) [µM] | IC50 (Pim2 kinase; read-out: IC50 (μM) PIM2) [µM] | IC50 (Pim3 kinase; read-out: IC50 (μM) PIM3) [µM] |
| --- | --- | --- | --- | --- | --- | --- |
| Nc1ccc(-c2cncc(OCc3ccccc3)n2)nc1C(=O)Nc1cnccc1N1CCC[C@H](N)C1 [Example 750, 3-Amino-6-(6-benzyloxy-pyrazin-2-yl)-pyridine-2-carboxylic acid (3-amino-3,4,5,6-tetrahydro-2H-[1,4′]bi-pyridinyl-3′-yl)-amide] | < 1 | < 1 | < 1 | – | – | – |
| COc1nc(-c2ccc(N)c(C(=O)Nc3cnccc3N3CCC[C@H](N)C3)n2)cnc1N [Example 731, 3-Amino-6-(5-amino-6-methoxy-pyrazin-2-yl)-pyridine-2-carboxylic acid (3-amino-3,4,5,6-tetrahydro-2H-[1,4′]bi-pyridinyl-3′-yl)-amide] | < 1 | < 1 | < 1 | – | – | – |
| CO[C@@H]1C[C@H](N)CN(c2ccncc2NC(=O)c2nc(C3CCCCC3)ccc2N)C1 [Example 285, 3-Amino-6-cyclohexyl-pyridine-2-carboxylic acid (3-amino-5-methoxy-3,4,5,6-tetrahydro-2H-[1,4′]bipyridinyl-3′-yl)-amide] | – | – | – | < 1 | < 1 | < 1 |
| Nc1ncc(-c2ccc(N)c(C(=O)Nc3cnccc3N3CCC[C@H](N)C3)n2)c(C(F)(F)F)n1 [Example 486, 3-Amino-6-(2-amino-4-trifluoromethyl-pyrimidin-5-yl)-pyridine-2-carboxylic acid (3-amino-3,4,5,6-tetrahydro-2H-[1,4′]bipyridinyl-3′-yl)-amide] | – | – | – | < 1 | < 1 | < 1 |
| Nc1nccnc1C(=O)Nc1cc(C(=O)C2CC2)ccc1N1CCNCC1 [Example 245, 3-amino-N-[5-(cyclopropyl-carbonyl)-2-piperazin-1-yl-phenyl]pyrazine-2-carboxamide] | – | – | – | > 25 | > 25 | 10 to 25 |
| Nc1ccc(-c2c(F)cccc2F)nc1C(=O)Nc1cnccc1N1C[C@@H](N)C[C@@H](O)C1 [Example 672, 3-Amino-6-(2,6-difluoro-phenyl)-pyridine-2-carboxylic acid (3-amino-5-hydroxy-3,4,5,6-tetrahydro-2H-[1,4′]bi-pyridinyl-3′-yl)-amide] | < 1 | < 1 | < 1 | – | – | – |
| Nc1cc(-c2ccncc2NC(=O)c2nc(-c3nccs3)ccc2N)cc(C(F)(F)F)n1 [Example 640, 3-amino-N-[2′-amino-6′-(trifluoromethyl)-4,4′-bipyridin-3-yl]-6-(1,3-thiazol-2-yl)pyridine-2-carboxamide] | < 1 | < 1 | < 1 | – | – | – |
| N[C@H]1CCCN(c2ccncc2NC(=O)c2ccnc(-c3ccccc3F)n2)C1 [Example 250, N-{4-[(3S)-3-aminopiperidin-1-yl]pyridin-3-yl}-2-(2-fluoro-phenyl)pyrimidine-4-carbox-amide] | – | – | – | < 1 | < 1 | < 1 |
| Nc1ccc(-c2ccccc2F)nc1C(=O)Nc1cnccc1-c1ccncc1 [Example 606, 3-amino-N-4,4′-bipyridin-3-yl-6-(2-fluorophenyl)-pyridine-2-carboxamide] | < 1 | < 1 | < 1 | – | – | – |
| CC(=O)c1ccc(N2CCC(N)CC2)c(NC(=O)c2nccnc2N)c1 [Example 220, N-[5-acetyl-2-(4-aminopiperidin-1-yl)phenyl]-3-aminopyrazine-2-carboxamide] | – | – | – | < 1 | 10 to 25 | < 1 |
| Nc1ccc(C2CC3CCC2C3)nc1C(=O)Nc1cnccc1N1CCC[C@H](N)C1 (stereo in doubt) [Example 646, 3-Amino-6-bicyclo[2.2.1]hept-2-yl-pyridine-2-carboxylic acid (3-amino-3,4,5,6-tetrahydro-2H-[1,4′]bipyridinyl-3′-yl)-amide] | < 1 | < 1 | < 1 | – | – | – |
| Nc1ccc(-c2cccc(-c3ccccc3)c2)nc1C(=O)Nc1cnccc1N1CCC[C@H](N)C1 [Example 458, 3-Amino-6-biphenyl-3-yl-pyridine-2-carboxylic acid (3-amino-3,4,5,6-tetrahydro-2H-[1,4′]bipyridinyl-3′-yl)-amide] | – | – | – | < 1 | < 1 | < 1 |
| Cc1cscc1-c1ccc(N)c(C(=O)Nc2cnccc2N2CCC[C@H](N)C2)n1 [Example 489, 3-Amino-6-(4-methyl-thiophen-3-yl)-pyridine-2-carboxylic acid (3-amino-3,4,5,6-tetrahydro-2H-[1,4′]bipyridinyl-3′-yl)-amide] | – | – | – | < 1 | < 1 | < 1 |
| COc1ccc(F)c(-c2ccc(N)c(C(=O)Nc3cnccc3N3CCC[C@H](N)C3)n2)c1F [Example 493, 3-Amino-6-(2,6-difluoro-3-methoxy-phenyl)-pyridine-2-carboxylic acid (3-amino-3,4,5,6-tetrahydro-2H-[1,4′]bipyridinyl-3′-yl)-amide] | – | – | – | < 1 | < 1 | < 1 |
| Nc1ccc(-c2cccc(S(N)(=O)=O)c2)nc1C(=O)Nc1cnccc1N1CCC[C@H](N)C1 [Example 481, 3-Amino-6-(3-sulfamoyl-phenyl)-pyridine-2-carboxylic acid (3-amino-3,4,5,6-tetrahydro-2H-[1,4′]bipyridinyl-3′-yl)-amide] | – | – | – | < 1 | < 1 | < 1 |
| Cc1nc(N)ncc1-c1ccc(N)c(C(=O)Nc2cnccc2N2CCC[C@H](N)C2)n1 [Example 409, 3-amino-6-(2-amino-4-methyl-pyrimidin-5-yl)-pyridine-2-carboxylic acid ((S)-3-amino-3,4,5,6-tetrahydro-2H-[1,4′]bi-pyridinyl-3′-yl)-amide] | – | – | – | < 1 | < 1 | < 1 |
| COC(=O)c1nc(-c2ccc(N)c(C(=O)Nc3cnccc3N3CCC[C@H](N)C3)n2)c(F)cc1N [Example 504, 5,5′-Diamino-6′-(3-amino-3,4,5,6-tetrahydro-2H-[1,4′]bi-pyridinyl-3′-ylcarbamoyl)-3-fluoro-[2,2′]bipyridinyl-6-carboxylic acid methyl ester] | – | – | – | < 1 | < 1 | < 1 |
| Nc1ccc(-c2c(F)ccc(OCc3ccccc3Cl)c2F)nc1C(=O)Nc1cnccc1N1CCC[C@H](N)C1 [Example 464, 3-Amino-6-[3-(2-chloro-benzyloxy)-2,6-difluoro-phenyl]-pyridine-2-carboxylic acid (3-amino-3,4,5,6-tetrahydro-2H-[1,4′]bipyridinyl-3′-yl)-amide] | – | – | – | < 1 | < 1 | < 1 |
| COc1ccc(-c2ccc(N)c(C(=O)Nc3cnccc3N3CCC[C@H](N)C3)n2)nc1 [Example 696, 5-Amino-5′-methoxy-[2,2′]bi-pyridinyl-6-carboxylic acid (3-amino-3,4,5,6-tetrahydro-2H-[1,4′]bipyridinyl-3′-yl)-amide] | < 1 | < 1 | < 1 | – | – | – |
| CC(=O)c1ccc(N2CCCC(N)C2)c(NC(=O)c2nccnc2N)c1 (stereo not drawn) [Example 221, N-[5-acetyl-2-(3-aminopiperidin-1-yl)phenyl]-3-aminopyrazine-2-carboxamide] | – | – | – | < 1 | 1 to 10 | < 1 |
| Nc1ccc(-c2ccccc2F)nc1C(=O)Nc1cnccc1N1C[C@H](N)C[C@H](N)C1 [Example 248, 3-Amino-6-(2-fluoro-phenyl)-pyridine-2-carboxylic acid (3,5-diamino-3,4,5,6-tetrahydro-2H-[1,4′]bipyridinyl-3′-yl)-amide] | – | – | – | < 1 | < 1 | < 1 |
| CCNC(=O)c1ccc(F)c(-c2ncc(N)c(C(=O)Nc3cnccc3N3CCC[C@H](N)C3)n2)c1 [Example 540, 5-Amino-2-(5-ethylcarbamoyl-2-fluoro-phenyl)-pyrimidine-4-carboxylic acid (3-amino-3,4,5,6-tetrahydro-2H-[1,4′]bipyridinyl-3′-yl)-amide] | < 1 | < 1 | < 1 | – | – | – |
| Nc1ccc(-c2ccncc2NC(=O)c2nc(-c3ccccc3F)ccc2N)cn1 [Example 604, 3-amino-N-(6-amino-3,4′-bipyridin-3′-yl)-6-(2-fluoro-phenyl)pyridine-2-carboxamide] | < 1 | < 1 | < 1 | – | – | – |
| CCCOc1ccc(F)c(-c2ccc(N)c(C(=O)Nc3cnccc3N3C[C@@H](N)C[C@H](O)C3)n2)c1 [Example 581, 3-Amino-6-(2-fluoro-5-propoxy-phenyl)-pyridine-2-carboxylic acid (3-amino-5-hydroxy-3,4,5,6-tetrahydro-2H-[1,4′]bipyridinyl-3′-yl)-amide] | < 1 | < 1 | < 1 | – | – | – |
| Nc1ccc(-c2ccc(C(F)(F)F)cn2)nc1C(=O)Nc1cnccc1N1CCC[C@H](N)C1 [Example 714, 5-Amino-5′-trifluoromethyl-[2,2′]bipyridinyl-6-carboxylic acid (3-amino-3,4,5,6-tetra-hydro-2H-[1,4′]bipyridinyl-3′-yl)-amide] | < 1 | < 1 | < 1 | – | – | – |
| Nc1ccc(-c2c(F)cccc2F)nc1C(=O)Nc1cnccc1N1CC(N)CC(CO)C1 (stereo not drawn) [Example 576, 3-Amino-6-(2,6-difluoro-phenyl)-pyridine-2-carboxylic acid (5-amino-3-hydroxymethyl-3,4,5,6-tetrahydro-2H-[1,4′]bipyridinyl-3′-yl)-amide] | < 1 | < 1 | < 1 | – | – | – |
| Nc1ccc(-c2ccccc2F)nc1C(=O)Nc1cnccc1N1CCC(F)(F)C(N)C1 (stereo not drawn) [Example 254, 3-Amino-6-(2-fluoro-phenyl)-pyridine-2-carboxylic acid (3-amino-4,4-difluoro-3,4,5,6-tetra-hydro-2H-[1,4′]bipyridinyl-3′-yl)-amide] | – | – | – | < 1 | < 1 | < 1 |

Reference: patent US20140249135A1, “PIM KINASE INHIBITORS AND METHODS OF THEIR USE” (NOVARTIS AG, priority 2007, published 2014)
